Test results: patent publication US11672775B2, “Treprostinil prodrugs” (United Therapeutics Corporation, priority 2016, dated 2023)
Values after ≈ are worked out from the molar mass of the structure shown. “Also recorded” adds a separate entry of the source.

Columns and labels:
[1] = test system: Sprague Dawley rats; assay: Rat intraplantar injection model, von Frey test (Example 9); assay type: in vivo, Sprague Dawley rat; conditions: for sensitivity to mechanical stimulation vs similar doses of treprostinil: both doses
Protocol: (§1) Male Sprague Dawley rats (n=112) were allocated into 14 groups of 8/group. The study was run in 2 cycles, on consecutive days, 7 groups per cycle. Each cycle was composed of a Saline group, PBS group, which served as the control, and also treprostinil at a dose of 100 μg/mL or 1 μg/mL.
(§2) Animals were administered 0.1 mL of test material by subcutaneous injection into the paw pad (Intraplantar injection) at time zero. Animals were subsequently evaluated for their response to mechanical (von Frey filaments) and thermal stimuli, 15 and 90 minutes post-injection. The von Frey test was conducted prior to the thermal test, which followed immediately within minutes for each animal. In addition, clinical observation scoring of the animal's reaction to injection was conducted. FIG. 16 schematically illustrates the study design.
Mechanical pain sensitivity was tested using the von Frey test, which measures the withdrawal force threshold of the animals. The lower the force applied represents a greater sensitivity to the stimulus. The von Frey test was performed 15 and 90 minutes post-Test Item injection.

[2] = test system: Sprague Dawley rats; assay: Rat intraplantar injection model, clinical observation score (Example 9); assay type: in vivo, Sprague Dawley rat; conditions: for clinical score: 15 min; for clinical score vs similar doses of treprostinil: both doses
Protocol: as §1, §2
A Clinical observation score was assigned by assessing for redness, swelling and paw placement.

[3] = Stability in 200 mM potassium phosphate buffer (pH 7.4); assay type: physicochemical; conditions: 1 μM
Protocol: According to the earlier aqueous solution stability study, all prodrugs are stable in 20 mM Sodium Phosphate dibasic with 125 mM NaCl at saturation concentrations (3-30 mg/ml). Also, in the method development work, it was also observed that the most unstable prodrugs III, IV and XIV were stable in 200 mM potassium phosphate buffer (pH 7.4) at a low concentration of 1 μM.

[4] = Solution stability in vehicle (UPLC area %); assay type: physicochemical; conditions: for T0 Residual Treprostinil / Solution stability, T0 Purity: 20 mM sodium phosphate dibasic with 125 mM sodium chloride; for Solution stability, T0 Purity: ambient; for T24 Residual Treprostinil / T72 Residual Treprostinil / Solution stability, T24 hours Purity / Solution stability, T72 hours Purity: same vehicle
Protocol: (§3) Each prodrug was dissolved in a vehicle containing 20 mM sodium phosphate dibasic with 125 mM sodium chloride. Prodrugs were prepared at saturation concentrations by weighing 15-30 mg of prodrug in to a 4 mL clear glass vial and dissolving in an appropriate volume of vehicle (0.5-1.0 mL) to achieve a nominal saturation concentration of 30 mg/mL. The solutions were mixed for 23 hours on a rotating mixer. […] The resultant supernatant solutions were isolated from undissolved prodrug by centrifugation at 15000 RPM for 15 min. Supernatants were transferred to clear glass vials and stored at ambient temperature. […] The resultant samples were assayed against treprostinil to determine prodrug concentration. At each testing interval (0, 24, 72 hours) the supernatant was assayed for prodrug concentration and purity by area %.

[5] = Equilibrium solubility in vehicle; assay type: physicochemical; conditions: 20 mM sodium phosphate dibasic with 125 mM sodium chloride; for solubility thermodynamic at 23 h: read-out: Equilibrium solubility, T0 hours Concentration; for solubility thermodynamic at 24 h: read-out: Equilibrium solubility, T24 hours Concentration; for solubility thermodynamic at 72 h: read-out: Equilibrium solubility, T72 hours Concentration
Protocol: as §3

[6] = test system: Sprague Dawley rats; assay: Rat intraplantar injection model, thermal pain sensitivity (Example 9); assay type: in vivo, Sprague Dawley rat; conditions: both doses (1 and 100 μg/mL); both time points
Protocol: as §1, §2
The sensitivity of animals to a thermal pain stimulus was assessed immediately following the von Frey test. The time until withdrawal of the right-injected leg from a heat source was measured, and the lower (faster) the time of response represents a greater sensitivity to the stimulus. The test was performed 15 and 90 minutes post-Test Item injection.

[7] = only the 1 μg/mL dose, both time points
[8] = 100 μg/mL (cycle 1), 90 minutes post-injection
[9] = 1 μg/mL or 100 μg/mL, 15 and 90 minutes post-injection
[10] = aqueous buffer, thermodynamic from solid, T0 hours
[11] = aqueous buffer, thermodynamic from solid, T24 hours
[12] = aqueous buffer, thermodynamic from solid, T72 hours

| clinical score ([2]; 100 μg/mL (cycle 1)) | T0 Residual Treprostinil [4] [% Area] | Solution stability, T0 Purity [4] [% Area] | T24 Residual Treprostinil [4] [% Area] | T72 Residual Treprostinil [4] [% Area] | Solution stability, T24 hours Purity [4] [% Area] | Solution stability, T72 hours Purity [4] [% Area] | solubility thermodynamic at 23 h [5, 10] [µg/mL] | solubility thermodynamic at 24 h [5, 11] [µg/mL] | solubility thermodynamic at 72 h [5, 12] [µg/mL] | Compound | further results |
| --- | --- | --- | --- | --- | --- | --- | --- | --- | --- | --- | --- |
| non-zero |  |  |  |  |  |  |  |  |  | CCCCC[C@H](O)CC[C@@H]1[C@H]2Cc3cccc(OCC(=O)O)c3C[C@H]2C[C@H]1OC(=O)N(C)C [Prodrug I, treprostinil ring carbamate] | von Frey withdrawal force threshold vs PBS-treated group ([1]; 1 μg/mL, both time points post-injection): no statistically significant difference; von Frey withdrawal force threshold vs PBS-treated group ([1]; 100 μg/mL, 15 minutes post-injection): no statistically significant difference; von Frey withdrawal force threshold vs PBS-treated group ([1]; 100 μg/mL, 90 minutes post-injection): statistically significant increased sensitivity; sensitivity to mechanical stimulation vs similar dose of treprostinil [1, 7]: reduced sensitivity; clinical score vs PBS group [2, 8]: non-zero; also recorded: statistically significant increase in the clinical score; clinical score vs similar dose of treprostinil [2, 7]: reduced clinical score |
| non-zero |  |  |  |  |  |  |  |  |  | CCCCC[C@@H](CC[C@@H]1[C@H]2Cc3cccc(OCC(=O)O)c3C[C@H]2C[C@H]1O)OC(=O)N(C)C [Prodrug II, treprostinil side-chain carbamate] | von Frey withdrawal force threshold vs PBS-treated group [1, 9]: no statistically significant difference; sensitivity to mechanical stimulation vs similar doses of treprostinil ([1]; both time points): statistically significant reduced sensitivity; clinical score vs PBS group [2, 8]: non-zero; clinical score vs PBS group ([2]; 100 μg/mL, both time points): not statistically significantly different; clinical score vs similar doses of treprostinil ([2]; both time points): reduced clinical score |
|  | 0.15 | 94.48 | 0.14 | 0.15 | 94.31 | 94.61 | 6100 (≈ 13.6 mM) | 6000 (≈ 13.4 mM) | 6200 (≈ 13.8 mM) | CCCCC[C@H](O)CC[C@@H]1[C@H]2Cc3cccc(OCC(=O)O)c3C[C@H]2C[C@H]1OC(=O)OC [Prodrug III, cyclopentyl methyl carbonate of treprostinil] | stability in buffer [3]: stable |
|  | 0.08 | 96.59 | 0.08 | 0.08 | 96.32 | 96.54 | 10000 (≈ 21.7 mM) | 10600 (≈ 23 mM) | 11300 (≈ 24.5 mM) | CCCCC[C@H](O)CC[C@@H]1[C@H]2Cc3cccc(OCC(=O)N[C@@H](C)C(=O)O)c3C[C@H]2C[C@H]1O [Prodrug X, treprostinil alanine amide] |  |
|  |  | 99.49 |  |  | 99.39 | 98.92 | 11500 (≈ 23.5 mM) | 11300 (≈ 23.1 mM) | 11500 (≈ 23.5 mM) | CCCCC[C@H](O)CC[C@@H]1[C@H]2Cc3cccc(OCC(=O)NC(C(=O)O)C(C)C)c3C[C@H]2C[C@H]1O (stereo partly drawn) [Prodrug XI, treprostinil valine amide] |  |
|  |  | 98.70 |  |  | 98.68 | 98.58 | 7400 (≈ 14.6 mM) | 7500 (≈ 14.8 mM) | 7400 (≈ 14.6 mM) | CCCCC[C@H](O)CC[C@@H]1[C@H]2Cc3cccc(OCC(=O)NC(CC(=O)O)C(=O)O)c3C[C@H]2C[C@H]1O (stereo partly drawn) [Prodrug XII, treprostinil aspartic acid amide] |  |
|  |  | 97.66 |  |  | 97.81 | 97.58 | 3200 (≈ 6.7 mM) | 3700 (≈ 7.75 mM) | 3800 (≈ 7.96 mM) | CCCCC[C@H](O)CC[C@@H]1[C@H]2Cc3cccc(OCC(=O)N[C@@H](CO)C(=O)O)c3C[C@H]2C[C@H]1O [Prodrug XIII, treprostinil serine amide] | solubility at 23 h ([5]; aqueous buffer, thermodynamic from solid, approximate, read-out: Solubility in the selected vehicle): ~3500 µg/mL (≈ 7.33 mM) |
| non-zero | 0.11 | 96.41 | 0.11 | 0.15 | 96.40 | 96.34 |  |  |  | treprostinil monomethyl carbamate [Prodrug VIII] | von Frey withdrawal force threshold vs PBS-treated group [1, 9]: no statistically significant difference; sensitivity to mechanical stimulation vs similar doses of treprostinil ([1]; both time points): statistically significant reduced sensitivity; thermal paw withdrawal time vs PBS group [6]: trend toward reduction in the time of response; Equilibrium solubility, T0 hours Concentration ([5]; T0 hours): 11000 µg/mL; Equilibrium solubility, T24 hours Concentration ([5]; T24 hours): 10500 µg/mL; Equilibrium solubility, T72 hours Concentration ([5]; T72 hours): 10900 µg/mL; clinical score vs PBS group ([2]; 100 μg/mL, both time points): not statistically significantly different; clinical score vs similar doses of treprostinil ([2]; both time points): reduced clinical score |
